The record followed here is patent publication US11613531B2, “Inhibitors of RHO associated coiled-coil containing protein kinase” (Kadmon Corporation, LLC, priority 2017, dated 2023).

In assay [1] the target is Recombinant ROCK2 (amino acids 1-552) (Homo sapiens (Human), UniProt O75116). As to the kind of experiment: Z′-Lyte kinase assay, ROCK2. The assay is classed as biochemical. Particulars: for inhibition at 1 µM: 1 μM compound, read-out: ROCK2 % inh. @ [conc]. In a few lines: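 IC50s derive from nonlinear curve fits over a 9-point, 2-fold dilution series, with single-point inhibition at 1 μM expressed relative to DMSO. Activity of truncated human ROCK1 (residues 1-535) and ROCK2 (residues 1-552) measured with the Z′-Lyte kinase format.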

In assay [2] the test system is ppMlc (T18/S19) levels in A7R5 cells. As to the kind of experiment: A7R5 in-cell ELISA (pMLC). The assay is classed as cell-based, Rat. Particulars: for inhibition at 1 µM / inhibition at 10 µM / IC50: Rattus norvegicus; for inhibition at 1 µM: 1 μM compound; for inhibition at 1 µM / inhibition at 10 µM: read-out: pMLC % inh A7R5 @ [conc]; for IC50: ppMlc (T18/S19). Put shortly: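 Cellular IC50 came from a nonlinear regression fit of ppMlc (T18/S19) signal, read by colorimetric in-cell ELISA on fixed cells. Rat A7R5 aortic smooth muscle cells had been exposed for 90 min to compounds in 9-point 2-fold serial dilution, 24 h after seeding.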
Background: In an ELISA, binding on a coated surface is turned into a signal by an enzyme label.

The mark [3] stands for this setting: A7R5, A7R5 cells, 10 μM compound.
Where [4] appears, read: 9 points 2-fold serial dilution.

Where “and” joins values, the source holds several entries; their conditions need not be identical. Equal entries are not always repeated. Where two headings read alike, the source gives them in different places.

Chain of Recombinant ROCK2 (amino acids 1-552) (O75116 1-552): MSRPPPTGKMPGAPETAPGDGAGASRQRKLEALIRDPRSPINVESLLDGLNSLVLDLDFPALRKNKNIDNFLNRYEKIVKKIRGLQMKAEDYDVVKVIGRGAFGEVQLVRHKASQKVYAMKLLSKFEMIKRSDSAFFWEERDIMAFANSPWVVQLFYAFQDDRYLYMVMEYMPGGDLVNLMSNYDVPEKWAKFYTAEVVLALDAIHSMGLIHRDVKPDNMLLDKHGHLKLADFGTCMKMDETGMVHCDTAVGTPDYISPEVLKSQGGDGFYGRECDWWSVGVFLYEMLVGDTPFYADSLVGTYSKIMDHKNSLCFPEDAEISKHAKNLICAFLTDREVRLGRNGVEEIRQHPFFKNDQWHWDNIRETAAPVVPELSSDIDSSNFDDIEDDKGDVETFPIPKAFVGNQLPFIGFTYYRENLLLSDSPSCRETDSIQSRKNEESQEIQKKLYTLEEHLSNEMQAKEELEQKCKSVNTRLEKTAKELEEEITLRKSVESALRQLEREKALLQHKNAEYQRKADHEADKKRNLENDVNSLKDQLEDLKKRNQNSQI

In the case of `Fc1cnc(N2CC3(CCNCC3)c3ccccc32)nc1Nc1ccc2[nH]ncc2c1` [Example 176, N-(5-fluoro-2-(spiro[indoline-3,4′-piperidin]-1-yl)pyrimidin-4-yl)-1H-indazol-5-amine], the inhibition at 1 µM worked out at 0% in assay [1] and 14.5% in assay [2] (A7R5, A7R5 cells).

With `Fc1cnc(N2CC(C3CCCNC3)c3ccccc32)nc1Nc1ccc2[nH]ncc2c1` (stereo not shown) [Example 177, N-(5-fluoro-2-(3-(piperidin-3-yl)indolin-1-yl)pyrimidin-4-yl)-1H-indazol-5-amine], the inhibition at 1 µM turned out to be 9.5% in assay [1] and 10.2% in assay [2] (A7R5, A7R5 cells).

`CC1CNCCN1c1ncc(Cl)c(Nc2ccc3[nH]ncc3c2)n1` (stereo not shown) [Example 179, N-(5-chloro-2-(2-methylpiperazin-1-yl)pyrimidin-4-yl)-1H-indazol-5-amine]: the inhibition at 1 µM in assay [1] is 77.6%. In addition, the inhibition at 10 µM in assay [2] (setting [3]) was 67.4%. Also, the IC50 in assay [2] (A7R5, A7R5 cells) is 1540 nM.

Consider `CC1CN(c2ncc(Cl)c(Nc3ccc4[nH]ncc4c3)n2)CCN1` (stereo not shown) [Example 180, N-(5-chloro-2-(3-methylpiperazin-1-yl)pyrimidin-4-yl)-1H-indazol-5-amine], for which the inhibition at 1 µM in assay [1] worked out at 73.8%. In addition, the inhibition at 10 µM in assay [2] (setting [3]) turned out to be 62.6%. Also, the IC50 in assay [2] (A7R5, A7R5 cells) is 1460 nM.

Regarding `CC(C)C1CN(c2ncc(Cl)c(Nc3ccc4[nH]ncc4c3)n2)CCN1` (stereo not shown) [Example 185, N-(5-chloro-2-(3-isopropylpiperazin-1-yl)pyrimidin-4-yl)-1H-indazol-5-amine], in assay [1], the inhibition at 1 µM worked out at 19.7%. Also, the inhibition at 10 µM in assay [2] (setting [3]) was 41.6%.

On to `CCC1CN(c2ncc(Cl)c(Nc3ccc4[nH]ncc4c3)n2)CCCN1` (stereo not shown) [Example 186, N-(5-chloro-2-(3-ethyl 4-diazepan-1-yl)pyrimidin-4-yl)-1H-indazol-5-amine], for which, in assay [1], the inhibition at 1 µM turned out to be 47.8%. The inhibition at 10 µM in assay [2] (setting [3]) worked out at 47.7%.

As to `CCC1CCN(c2ncc(Cl)c(Nc3ccc4[nH]ncc4c3)n2)CCN1` (stereo not shown) [Example 188, N-(5-chloro-2-(5-ethyl-1,4-diazepan-1-yl)pyrimidin-4-yl)-1H-indazol-5-amine], the inhibition at 1 µM in assay [1] worked out at 44.9%. Besides, in assay [2] (setting [3]), the inhibition at 10 µM came out at 47.9%.

Consider `CCC1CN(c2ncc(Cl)c(Nc3ccc4[nH]ncc4c3)n2)CCN1` (stereo not shown) [Example 190, N-(5-chloro-2-(3-ethylpiperazin-1-yl)pyrimidin-4-yl)-1H-indazol-5-amine], for which, in assay [1], the inhibition at 1 µM is 41%. Further, the inhibition at 10 µM in assay [2] (setting [3]) worked out at 45.9%.

`CC1CCN(c2ncc(Cl)c(Nc3ccc4[nH]ncc4c3)n2)CCN1` (stereo not shown) [Example 191, N-(5-chloro-2-(5-methyl-1,4-diazepan-1-yl)pyrimidin-4-yl)-1H-indazol-5-amine]: the inhibition at 1 µM in assay [1] turned out to be 67%. For the same molecule, in assay [2] (setting [3]), the inhibition at 10 µM was 50.6%. The IC50 in assay [2] (A7R5, A7R5 cells) came to 1850 nM.

Consider `CC1CNCCN(c2ncc(Cl)c(Nc3ccc4[nH]ncc4c3)n2)C1` (stereo not shown) [Example 193, N-(5-chloro-2-(6-methyl-1,4-diazepan-1-yl)pyrimidin-4-yl)-1H-indazol-5-amine], for which the inhibition at 1 µM is 84.4% in assay [1] and 32.5% in assay [2] (A7R5, A7R5 cells). Also, the IC50 in assay [1] (setting [4]) was 282 nM; in assay [2] (A7R5, A7R5 cells), 788 nM.

For the molecule `Clc1cnc(N2CC3CCC(C2)N3)nc1Nc1ccc2[nH]ncc2c1` [Example 195, N-(2-(3,8-diazabicyclo[3.2.1]octan-3-yl)-5-chloropyrimidin-4-yl)-1H-indazol-5-amine], the inhibition at 1 µM in assay [1] is 66%; in assay [2] (A7R5, A7R5 cells) it was -3.1%. The IC50 in assay [1] (setting [4]) amounted to 405 nM.

Regarding `Cc1nc(N2CCNCC2)nc(Nc2ccc3[nH]ncc3c2)c1C` [Example 197, N-(5,6-dimethyl-2-(piperazin-1-yl)pyrimidin-4-yl)-1H-indazol-5-amine], the IC50 in assay [1] (setting [4]) was 437 nM; in assay [2] (A7R5, A7R5 cells) it was 581 nM. In addition, the inhibition at 10 µM in assay [2] (setting [3]) stood at 53.8%.

Consider `c1cc(Nc2ccc3[nH]ncc3c2)nc(N2CC3CC(C2)N3)n1` [Example 199, N-(2-(3,6-diazabicyclo[3.1.1]heptan-3-yl)pyrimidin-4-yl)-1H-indazol-5-amine], for which the IC50 in assay [1] (setting [4]) turned out to be 151 nM; in assay [2] (A7R5, A7R5 cells), 525 nM. Moreover, the inhibition at 10 µM in assay [2] (setting [3]) is 49.6%.

As to `Cc1cc(Nc2ccc3[nH]ncc3c2)nc(N2CCNC3(CC3)C2)n1` [Example 212, N-(6-methyl-2-(4,7-diazaspiro[2.5]octan-7-yl)pyrimidin-4-yl)-1H-indazol-5-amine], the inhibition at 1 µM was 91.9% in assay [1] and 16.1% in assay [2] (A7R5, A7R5 cells).

As to `c1cc(Nc2ccc3[nH]ncc3c2)nc(N2CC3CCC(C2)N3)n1` [Example 229, N-(2-(3,8-diazabicyclo[3.2.1]octan-3-yl)pyrimidin-4-yl)-1H-indazol-5-amine], the IC50 in assay [1] (setting [4]) is 77 nM. Moreover, the inhibition at 10 µM in assay [2] (setting [3]) came to 81%.

As to `c1ccc(CNC2CCCN(c3nccc(Nc4ccc5[nH]ncc5c4)n3)C2)cc1` (stereo not shown) [Example 234, N-(2-(3-(benzylamino)piperidin-1-yl)pyrimidin-4-yl)-1H-indazol-5-amine], the IC50 in assay [1] was 1800 nM. For the same molecule, the inhibition at 10 µM in assay [2] (setting [3]) is 55.6%.

On to `CCC1CNCCN1c1nccc(Nc2ccc3[nH]ncc3c2)n1` (stereo not shown) [Example 235, N-(2-(2-ethylpiperazin-1-yl)pyrimidin-4-yl)-1H-indazol-5-amine], for which, in assay [1], the inhibition at 1 µM is 94.4%. Further, the IC50 worked out at 54 nM in assay [1] (setting [4]) and 510 nM in assay [2] (A7R5, A7R5 cells).

For the molecule `CC1CCNCCN1c1nccc(Nc2ccc3[nH]ncc3c2)n1` (stereo not shown) [Example 240, N-(2-(7-methyl-1,4-diazepan-1-yl)pyrimidin-4-yl)-1H-indazol-5-amine], in assay [1], the inhibition at 1 µM came to 84.5%. Also, in assay [2] (setting [3]), the inhibition at 10 µM was 78.1%. The IC50 in assay [2] (A7R5, A7R5 cells) worked out at 1110 nM.

Consider `CCC1CNCCCN1c1nccc(Nc2ccc3[nH]ncc3c2)n1` (stereo not shown) [Example 241, N-(2-(2-ethyl-1,4-diazepan-1-yl)pyrimidin-4-yl)-1H-indazol-5-amine], for which the inhibition at 1 µM in assay [1] was determined as 85.2%. For the same molecule, the inhibition at 10 µM in assay [2] (setting [3]) turned out to be 81%. In addition, in assay [2] (A7R5, A7R5 cells), the IC50 amounted to 954 nM.

For the molecule `COc1cccc(CN(C)C2CCCN(c3nccc(Nc4ccc5[nH]ncc5c4)n3)C2)c1` (stereo not shown) [Example 242, N-(2-(3-((3-methoxybenzyl)(methyl)amino)piperidin-1-yl)pyrimidin-4-yl)-1H-indazol-5-amine], the IC50 in assay [1] came to 747 nM. For the same molecule, the inhibition at 10 µM in assay [2] (setting [3]) is 41.2%.

As for `COc1ccccc1NC1CCCN(c2nccc(Nc3ccc4[nH]ncc4c3)n2)C1` (stereo not shown) [Example 244, N-(2-(3-((2-methoxyphenyl)amino)piperidin-1-yl)pyrimidin-4-yl)-1H-indazol-5-amine], the IC50 in assay [1] is more than 10000 nM. Besides, the inhibition at 10 µM in assay [2] (setting [3]) was found to be 0.8%.

With `COc1ccc(N[C@@H]2CCN(c3nccc(Nc4ccc5[nH]ncc5c4)n3)C2)cc1` [Example 246, (R)—N-(2-(3-((4-methoxyphenyl)amino)pyrrolidin-1-yl)pyrimidin-4-yl)-1H-indazol-5-amine], in assay [1] (concentration not given), the “ROCK2 % inh. @ [conc]” value came to 0%. Moreover, the inhibition at 10 µM in assay [2] (setting [3]) worked out at 1.8%.

For `N[C@H]1CCN(c2nccc(Nc3ccc(-c4cn[nH]c4)cc3)n2)C1` [Example 254, (S)—N-(4-(1H-pyrazol-4-yl)phenyl)-2-(3-aminopyrrolidin-1-yl)pyrimidin-4-amine], in assay [1], the IC50 turned out to be 1230 nM. Besides, the inhibition at 10 µM in assay [2] (setting [3]) amounted to 16.2%.

With `OC1CC2CCC(C1)N2c1nccc(Nc2ccc(-c3cn[nH]c3)cc2)n1` (stereo not shown) [Example 259, 8-(4-((4-(1H-pyrazol-4-yl)phenyl)amino)pyrimidin-2-yl)-8-azabicyclo[3.2.1]octan-3-ol], the IC50 in assay [1] is more than 10000 nM. The inhibition at 10 µM in assay [2] (A7R5 cells, 10 μM compound) is 6.48%.

As for `Cc1cnc(N2CCCNCC2)nc1Nc1ccc(-c2cn[nH]c2)cc1` [Example 261, N-(4-(1H-pyrazol-4-yl)phenyl)-2-(1,4-diazepan-1-yl)-5-methylpyrimidin-4-amine], the inhibition at 1 µM in assay [1] is 74%. Further, the inhibition at 10 µM in assay [2] (setting [3]) was determined as 86%. For the same molecule, the IC50 in assay [2] (A7R5, A7R5 cells) was 1880 nM.

In the case of `c1cc(-c2cn[nH]c2)ccc1Nc1nc(N2CCCNCC2)nc2c1CSC2` [Example 263, N-(4-(1H-pyrazol-4-yl)phenyl)-2-(1,4-diazepan-1-yl)-5,7-dihydrothieno[3,4-d]pyrimidin-4-amine], the inhibition at 1 µM in assay [1] was 101%. The inhibition at 10 µM in assay [2] (setting [3]) came out at 82%. For the same molecule, the IC50 in assay [2] (A7R5, A7R5 cells) came to 1390 nM.

As to `c1cc2nc(N3CCCNCC3)nc(Nc3ccc(-c4cn[nH]c4)cc3)c2s1` [Example 264, N-(4-(1H-pyrazol-4-yl)phenyl)-2-(1,4-diazepan-1-yl)thieno[3,2-d]pyrimidin-4-amine], the inhibition at 1 µM in assay [1] amounted to 92.8%. Further, the IC50 in assay [1] (setting [4]) came out at 30 nM; in assay [2] (A7R5, A7R5 cells), 514 nM. Moreover, in assay [2] (setting [3]), the inhibition at 10 µM came to 60.2%.

Consider `Cc1cc(Nc2ccc(-c3cn[nH]c3)cc2)nc(N2CCCNCC2)n1` [Example 265, N-(4-(1H-pyrazol-4-yl)phenyl)-2-(1,4-diazepan-1-yl)-6-methylpyrimidin-4-amine], for which, in assay [1], the inhibition at 1 µM was 71.2%. Further, the inhibition at 10 µM in assay [2] (setting [3]) stood at 80%. For the same molecule, the IC50 in assay [2] (A7R5, A7R5 cells) is 1370 nM.

Consider `COc1cnc(N2CCCNCC2)nc1Nc1ccc(-c2cn[nH]c2)cc1` [Example 267, N-(4-(1H-pyrazol-4-yl)phenyl)-2-(1,4-diazepan-1-yl)-5-methoxypyrimidin-4-amine], for which the inhibition at 1 µM in assay [1] was 52.3%. In addition, in assay [2] (setting [3]), the inhibition at 10 µM was determined as 70%.

In the case of `COc1cccc(C2CCN(c3nccc(Nc4ccc(-c5cn[nH]c5)cc4)n3)C2)c1` (stereo not shown) [Example 269, N-(4-(1H-pyrazol-4-yl)phenyl)-2-(3-(3-methoxyphenyl)pyrrolidin-1-yl)pyrimidin-4-amine], the IC50 in assay [1] turned out to be 1650 nM. Further, the “pMLC % inh A7R5 @ [conc]” value in assay [2] (A7R5 cells, 10 μM compound) is −5.7% and −7.2%.

The IC50 is the point on the concentration scale where inhibition reaches its midpoint.
